{"source": "patent US20150150266A1", "about": "“PESTICIDE COMPOUNDS, USE THEREOF AND METHOD OF PROTECTION OF PLANTS” (AGRA GROUP, A.S., priority 2012, published 2015)", "key": {"Aspergillus flavus": {"tested_on": "Aspergillus flavus", "assay": "Fungal mycelium growth inhibition assay (agar dilution)", "type": "cell-based", "details": "7 days at 21° C.", "procedure": "(§1) The assay for inhibitory activity of compounds of general formula (I) to radial growth and morphological effects to mycelia was carried out in agar by a multiple dilution method. The compound was diluted to concentrations shown in the Table in potato dextrose agar prepared in accordance with manufacturer's instructions. Petri dishes were filled with the thus prepared agar and aseptically inoculated with a disc of the diameter of 0.4 cm cut from a 7-day agar culture of the respective fungus. Controls were prepared in an analogous manner, using sterile distilled water instead of compound of general formula (I). The Petri dishes were incubated for 7 days at 21° C. and then the diameter of the colonies was measured. The percentage of inhibition of radial growth of the respective fungus was calculated according to the following equation: inhibition [%]=(DC-DT)/DC×100, wherein DC is the diameter of control colony and DT is the diameter of the colony grown on the agar containing the respective amount of compound of general formula (I). Standard deviation corresponds to averages from 3 replications.\n(§2) The compound Cu2SO3.CuSO3.2H2O inhibited the growth of all tested mycelia (Table 1). Individual micelia have shown a variation in the sensitivity to the compound and concentration dependency on the fungicide dose was observed."}, "Aspergillus fumigatus": {"tested_on": "Aspergillus fumigatus", "assay": "Fungal mycelium growth inhibition assay (agar dilution)", "type": "cell-based", "details": "7 days at 21° C.", "procedure": "as §1, §2"}, "Fusarium oxysporum": {"tested_on": "Fusarium oxysporum", "assay": "Fungal mycelium growth inhibition assay (agar dilution)", "type": "cell-based", "details": "7 days at 21° C.", "procedure": "as §1, §2"}, "Fusarium verticillioides": {"tested_on": "Fusarium verticillioides", "assay": "Fungal mycelium growth inhibition assay (agar dilution)", "type": "cell-based", "details": "7 days at 21° C.", "procedure": "as §1, §2"}, "[1]": {"tested_on": "Penicillium brevicompactum", "assay": "Fungal mycelium growth inhibition assay (agar dilution)", "type": "cell-based", "details": "7 days at 21° C.", "procedure": "as §1, §2"}, "Penicillium expansum": {"tested_on": "Penicillium expansum", "assay": "Fungal mycelium growth inhibition assay (agar dilution)", "type": "cell-based", "details": "7 days at 21° C.", "procedure": "as §1, §2"}, "Hordeum vulgare L.": {"tested_on": "Hordeum vulgare L.", "assay": "Field trial with crops, foliar spraying at BBCH 62", "type": "in vivo", "details": "for Yield / Yield, % of the control: foliar spraying of wettable powder A; for Yield, % of the control: control = water", "procedure": "(§3) The experimental field was chosen in a warm region suitable for beet cultivation, with sufficient precipitation, soil type was brown earth. The plants were treated using a common agrotechnology, with the exception of the application of fungicidal protection. […] Water was used as the negative control.\n(§4) At the end of the vegetative season, the crops were harvested and the yield was determined."}, "Triticum aestivum L.": {"tested_on": "Triticum aestivum L.", "assay": "Field trial with crops, foliar spraying at BBCH 62", "type": "in vivo", "details": "for Yield / Yield, % of the control: foliar spraying of wettable powder A; for Yield, % of the control: control = water", "procedure": "as §3, §4"}}, "note": "Marks after values point to notes of the source that are not given here."}
{"smiles": "O.O.O=S([O-])[O-].O=S([O-])[O-].[Cu+2].[Cu+].[Cu+]", "note": "[Cu2SO3•CuSO3•2H2O, Cu2SO3.CuSO3.2H2O (Chevreul's salt)]", "values": [{"measurement": "Percentage of radial growth inhibition", "setting": "Aspergillus flavus; 0.3 mg/mL agar", "result": "97.67 ± 0.05", "unit": "%"}, {"measurement": "Percentage of radial growth inhibition", "setting": "Aspergillus flavus; 0.4 mg/mL agar", "result": "98.84 ± 0.05", "unit": "%"}, {"measurement": "Percentage of radial growth inhibition", "setting": "Aspergillus flavus; 0.5 mg/mL agar", "result": "100.00 ± 0.00", "unit": "%"}, {"measurement": "Percentage of radial growth inhibition", "setting": "Aspergillus fumigatus; 0.3 mg/mL agar", "result": "100.00 ± 0.00", "unit": "%"}, {"measurement": "Percentage of radial growth inhibition", "setting": "Aspergillus fumigatus; 0.4 mg/mL agar", "result": "100.00 ± 0.00", "unit": "%"}, {"measurement": "Percentage of radial growth inhibition", "setting": "Aspergillus fumigatus; 0.5 mg/mL agar", "result": "100.00 ± 0.00", "unit": "%"}, {"measurement": "Percentage of radial growth inhibition", "setting": "Fusarium oxysporum; 0.3 mg/mL agar", "result": "6.72 ± 0.05", "unit": "% ^1)"}, {"measurement": "Percentage of radial growth inhibition", "setting": "Fusarium oxysporum; 0.4 mg/mL agar", "result": "59.70 ± 0.16", "unit": "% ^1)"}, {"measurement": "Percentage of radial growth inhibition", "setting": "Fusarium oxysporum; 0.5 mg/mL agar", "result": "97.76 ± 0.00", "unit": "%"}, {"measurement": "Percentage of radial growth inhibition", "setting": "Fusarium verticillioides; 0.3 mg/mL agar", "result": "−2.81 ± 0.00", "unit": "% ^2)"}, {"measurement": "Percentage of radial growth inhibition", "setting": "Fusarium verticillioides; 0.4 mg/mL agar", "result": "19.10 ± 0.16", "unit": "% ^2)"}, {"measurement": "Percentage of radial growth inhibition", "setting": "Fusarium verticillioides; 0.5 mg/mL agar", "result": "30.90 ± 0.00", "unit": "% ^2)"}, {"measurement": "Percentage of radial growth inhibition", "setting": "[1]; 0.3 mg/mL agar", "result": "77.78 ± 0.09", "unit": "%"}, {"measurement": "Percentage of radial growth inhibition", "setting": "[1]; 0.4 mg/mL agar", "result": "95.24 ± 0.00", "unit": "%"}, {"measurement": "Percentage of radial growth inhibition", "setting": "[1]; 0.5 mg/mL agar", "result": "100.00 ± 0.00", "unit": "%"}, {"measurement": "Percentage of radial growth inhibition", "setting": "Penicillium expansum; 0.3 mg/mL agar", "result": "98.37 ± 0.05", "unit": "%"}, {"measurement": "Percentage of radial growth inhibition", "setting": "Penicillium expansum; 0.4 mg/mL agar", "result": "96.75 ± 0.05", "unit": "%"}, {"measurement": "Percentage of radial growth inhibition", "setting": "Penicillium expansum; 0.5 mg/mL agar", "result": "100.00 ± 0.00", "unit": "%"}, {"measurement": "Yield", "setting": "Hordeum vulgare L.; 2011, 125 g/ha", "result": 8.65, "unit": "t/ha"}, {"measurement": "Yield, % of the control", "setting": "Hordeum vulgare L.; 2011, 125 g/ha", "result": 103.2, "unit": "%"}, {"measurement": "Yield", "setting": "Hordeum vulgare L.; 2011, 625 g/ha", "result": 8.73, "unit": "t/ha"}, {"measurement": "Yield, % of the control", "setting": "Hordeum vulgare L.; 2011, 625 g/ha", "result": 104.2, "unit": "%"}, {"measurement": "Phytotoxic effects", "setting": "Hordeum vulgare L.; 2011, high dose 625 g/ha", "result": "No phytotoxic effects were observed even at this dose"}, {"measurement": "Occurrence of fusarioses or other fungal diseases", "setting": "Hordeum vulgare L.; field trial, doses of Table 3", "result": "neither occurrence of fusarioses or other fungal diseases"}, {"measurement": "Phytotoxic effects", "setting": "Hordeum vulgare L.; field trial, doses of Table 3", "result": "No phytotoxic effects were observed"}, {"measurement": "Yield", "setting": "Triticum aestivum L.; 2010, 125 g/ha", "result": 7.34, "unit": "t/ha"}, {"measurement": "Yield, % of the control", "setting": "Triticum aestivum L.; 2010, 125 g/ha", "result": 104.7, "unit": "%"}, {"measurement": "Yield", "setting": "Triticum aestivum L.; 2011, 125 g/ha", "result": 8.45, "unit": "t/ha"}, {"measurement": "Yield, % of the control", "setting": "Triticum aestivum L.; 2011, 125 g/ha", "result": 108.1, "unit": "%"}, {"measurement": "Yield", "setting": "Triticum aestivum L.; 2011, 625 g/ha", "result": 8.60, "unit": "t/ha"}, {"measurement": "Yield, % of the control", "setting": "Triticum aestivum L.; 2011, 625 g/ha", "result": 110.1, "unit": "%"}, {"measurement": "Phytotoxic effects", "setting": "Triticum aestivum L.; 2011, high dose 625 g/ha", "result": "No phytotoxic effects were observed even at this dose"}, {"measurement": "Occurrence of fusarioses or other fungal diseases", "setting": "Triticum aestivum L.; field trial, doses of Table 3", "result": "neither occurrence of fusarioses or other fungal diseases"}, {"measurement": "Phytotoxic effects", "setting": "Triticum aestivum L.; field trial, doses of Table 3", "result": "No phytotoxic effects were observed"}]}
